According to US4613604A, “Hydroxymethyl derivatives of 5-benzylacyclouridine and 5-benzoyloxybenzylacyclouridine and their use as potentiators for 5-fluoro-2'-deoxyuridine” (Brown University Research Foundation, priority 1985, dated 1986):
Several values for one entry are separate records, joined by “and”; a condition that tells them apart may be missing. Identical values can stand only once. Like-named read-outs stand apart in the source and are kept apart here.

Experiments:
[1] = target: uridine phosphorylase; test: Inhibition of uridine phosphorylase from mouse liver (105,000×g supernatant of liver homogenate); assay type: biochemical; details: mouse liver enzyme; apparent Ki = Ki(1+[S]/Km); type of inhibition not characterized
Description: (§1) Testing of compounds HM-BAU and HM-BBAU as inhibitors of uridine phosphorylase was performed using 105,000×g supernatant of mouse liver and human liver homogenates. Enzyme assays were carried out as described in Niedzwicki et al., Biochem. Pharm. 31, 1857 (1982), supra. Apparent Ki values are related to Ki by the following equation: [formula] where Kis and Kii are the inhibition constants that would have been estimated from the replots of slope and intercept, respectively, of a Lineweaver-Burk plot vs [I]. If a compound is a competitive inhibitor with respect to the substrate uridine. Kii =.infin. and Kis =Ki. Therefore:
(§2) apparent Ki =Ki (1+[S]/Km)
(§3) Thus, the true Ki values would be lower than the apparent Ki values by a factor of (1+S/Km). It must be noted, however, that these compounds were not characterized with regard to the type of inhibition (i.e. competitive, non-competitive or uncompetitive), nor were they tested as substrates for uridine phosphorylase.

[2] = Water solubility; assay type: physicochemical; details: in words
[3] = test system: human pancreatic carcinoma (DAN); test: Growth inhibition of pancreatic carcinoma DAN cells in culture by FdUrd with or without potentiator; assay type: cell-based; details: for in vitro antineoplastic activity of FdUrd with potentiator, in words: DAN cells, combination with FdUrd; for effect of potentiator alone on the growth of DAN in culture: potentiator alone at 50 μM, no FdUrd
Description: Determination of the activities of HM-BAU and HM-BBAU as potentiators of FdUrd anti-neoplastic activity was carried out using a human pancreatic carcinoma (DAN) in culture. Details of the procedure are described in Chu et al., supra. Table 1 summarizes the effect of HM-BAU and HM-BBAU upon the inhibitory effect of FdUrd on the growth of pancreatic DAN cells in culture.
FdUrd alone at 0.1 and 0.3 μM inhibited the cell growth by 20% and 34% respectively.

[4] = target: uridine phosphorylase; test: Inhibition of uridine phosphorylase from human liver (105,000×g supernatant of liver homogenate); assay type: biochemical; details: for Ki: human liver enzyme, apparent Ki = Ki(1+[S]/Km), type of inhibition not characterized; for inhibition of human liver uridine phosphorylase, in words: compared with BAU and BBAU
Description: as §1, §2, §3

[5] = test system: human lung carcinoma (LX-1); details: LX-1, in vivo; cited from earlier work
[6] = background statement, in words; cited from earlier work
[7] = test system: human pancreatic carcinoma (DAN); details: in vivo; cited from earlier work
[8] = test system: human lung carcinoma (LX-1); details: LX-1, in vitro; cited from earlier work
[9] = test system: uridine phosphorylase; details: among the acyclouridines developed; cited from earlier work
[10] = test system: human pancreatic carcinoma (DAN); details: in vitro; cited from earlier work
[11] = test system: cleavage of FdUrd in certain tumor extracts; details: cited from earlier work
[12] = potentiator 50 μM, added 5 minutes prior to FdUrd 0.1 μM, P < 0.001 vs control, p < 0.01 from one another
[13] = potentiator 50 μM, added 5 minutes prior to FdUrd 0.3 μM

With `O=c1[nH]c(=O)n(COC(CO)CO)cc1Cc1cccc(OCc2ccccc2)c1` [HM-BBAU, 5-(m-Benzyloxybenzyl)-1-[(1,3-dihydroxy-2-propoxy)methyl]uracil] the Ki [1] was 320 nM, the water solubility [2] was “water soluble” and the “in vitro antineoplastic activity of FdUrd with potentiator, in words” value [3] was “significantly potentiated”. The “% Growth Inhibition of DAN cells in culture” value (“% Growth Inhibition” below) [3, 12] was 73.6 ± 0.3% and 74%, the “% Growth Inhibition” value ([3]; potentiator 50 μM, added 5 minutes prior to FdUrd 0.1 μM, P < 0.001 vs control, p < 0.01 from one another, listed as HN-BBAU) was 74% and the “% Growth Inhibition” value [3, 13] was 83.2 ± 1.3% and 83%. For the same compound, the “% Growth Inhibition” value ([3]; potentiator 50 μM, added 5 minutes prior to FdUrd 0.3 μM, listed as HN-BBAU) was 83%, the “effect of potentiator alone on the growth of DAN in culture” value [3] was “do not affect the growth of DAN in culture” and the Ki [4] was 650 nM. The “inhibition of human liver uridine phosphorylase, in words” value [4] was “excellent inhibitors of this enzyme and superior to BAU and BBAU”.
In the case of `O=c1[nH]c(=O)n(COCCO)cc1Cc1cccc(OCc2ccccc2)c1` [BBAU, 5-benzyloxybenzylacyclouridine], the “enhancement of antineoplastic activity of FdUrd” value (from here on “enhancement”) [5] is listed as “enhance the antineoplastic activity of FdUrd”, the water solubility [6] is listed as “not very water soluble” and the “enhancement” value [7] is listed as “enhance the antineoplastic activity of FdUrd”. For the same compound, the “enhancement” value [8] was “enhance the antineoplastic activity of FdUrd”, the “effectiveness as uridine phosphorylase inhibitor, in words” value [9] was “particularly effective” and the “enhancement” value [10] was “enhance the antineoplastic activity of FdUrd”. The “inhibition of cleavage of FdUrd” value [11] was “inhibit the cleavage of FdUrd”.
In the case of `O=c1[nH]c(=O)n(COCCO)cc1Cc1ccccc1` [BAU, 5-benzylacyclouridine], the “enhancement” value [5] is listed as “enhance the antineoplastic activity of FdUrd”, the water solubility [6] is listed as “not very water soluble” and the “enhancement” value [7] is listed as “enhance the antineoplastic activity of FdUrd”. For the same compound, the “enhancement” value [8] was “enhance the antineoplastic activity of FdUrd”, the “effectiveness as uridine phosphorylase inhibitor, in words” value [9] was “particularly effective” and the “enhancement” value [10] was “enhance the antineoplastic activity of FdUrd”. For the same compound, the “inhibition of cleavage of FdUrd” value [11] was “inhibit the cleavage of FdUrd”.
With `O=c1[nH]c(=O)n([C@H]2C[C@H](O)[C@@H](CO)O2)cc1F` [FdUrd, 5-fluoro-2'-deoxyuridine] the “% Growth Inhibition” value ([3]; FdUrd 0.1 μM alone, no potentiator) was 20%, the “% Growth Inhibition” value ([3]; FdUrd 0.3 μM alone, no potentiator) was 34% and the inhibition at 0.1 µM ([3]; Homo sapiens, FdUrd 0.1 μM alone, no potentiator) was 20.2 ± 1.1%. It also gave an inhibition at 0.3 µM ([3]; Homo sapiens, FdUrd 0.3 μM alone, no potentiator) of 33.8 ± 1.3% and an inhibition at 1 µM ([3]; Homo sapiens, FdUrd 1.0 μM alone, no potentiator) of 66 ± 1.4%.
With `O=c1[nH]c(=O)n(COC(CO)CO)cc1Cc1ccccc1` [HM-BAU, 5-Benzyl-1-[(1,3-dihydroxy-2-propoxy)methyl]uracil] the Ki [1] was 1600 nM, the water solubility [2] was “water soluble” and the “in vitro antineoplastic activity of FdUrd with potentiator, in words” value [3] was “significantly potentiated”. For the same compound, the “% Growth Inhibition” value [3, 12] was 63.4 ± 1.1% and 63%, the “% Growth Inhibition” value [3, 13] was 67.8 ± 1.7% and 68% and the “effect of potentiator alone on the growth of DAN in culture” value [3] was “do not affect the growth of DAN in culture”. For the same compound, the Ki [4] was 2500 nM and the “inhibition of human liver uridine phosphorylase, in words” value [4] was “excellent inhibitors of this enzyme and superior to BAU and BBAU”.
